According to the Biogen ADME set (Fang et al. 2023):
In brackets after ≈: the same amount, converted by molar mass.

Details: for aqueous solubility: pH 6.8

MDR1-MDCK efflux ratio | intrinsic clearance, human liver microsomes [mL/min/kg] | intrinsic clearance, rat liver microsomes [mL/min/kg] | aqueous solubility [µg/mL] | fraction unbound, human plasma | fraction unbound, rat plasma | Structure (SMILES)
34.7 | ≤ 4.74 | ≤ 10.7 | – | – | – | O=C(Nc1ccn(CC(F)F)n1)NC1CCN(C2CCCC2)CC1
11.5 | 80.7 | 294 | – | – | – | Cc1c(C(=O)Nc2ccc(N3CCC(N4CCOCC4)CC3)c(C#N)c2)cnn1-c1ccc(Cl)cc1
– | 84.4 | 647 | – | – | – | Cc1ccnc2[nH]c(CSCc3ccccc3)nc12
0.721 | 15.5 | 189 | 2.44 (≈ 10 µM) | – | – | O=C(Nc1nc2ccccc2[nH]1)C1CCCCC1
– | 99.7 | 180 | 40.5 (≈ 143 µM) | 0.32 | 0.389 | COc1nn(C)cc1C(=O)Nc1cccc2cnccc12
16.6 | 26.6 | 280 | – | – | – | CCOc1cc(CN2CCc3c(N)nc(N4CCCC4)nc3C2)ccc1OC
11.4 | 249 | 2420 | 60.5 (≈ 139 µM) | – | – | Cc1nc(CC2CCN(S(=O)(=O)c3c(C)noc3C)CC2)cc(NC2CCCC2)n1
– | 129 | 3400 | – | – | – | c1ccc(C2(CNc3nc4ccccc4o3)CCOCC2)cc1
13.9 | ≤ 4.74 | 19 | – | – | – | NC(=O)c1cccc(Cn2cnc3c(oc4ccccc43)c2=O)c1
– | 198 | 1380 | – | – | – | CCCCN(CC)c1nc(C)nc2c1c(C)c(C)n2-c1c(C)cc(C)cc1C
1.75 | 24.2 | 1280 | – | – | – | NS(=O)(=O)N1CCN(Cc2c(F)cccc2N2CCCC2)CC1
0.841 | ≤ 4.74 | 18.1 | – | – | – | CCCc1noc2nc(-c3ccncc3)cc(C(=O)O)c12
0.716 | 25.2 | 94.9 | 44.2 (≈ 172 µM) | – | – | CCc1ccccc1NC(=O)Cn1nc(C)cc1C
0.092 | – | – | 0.14 (≈ 0.438 µM) | – | – | CCc1nnc2c3ccccc3nc(Nc3ccc(OC)cc3)n12
1.12 | 16.5 | 156 | 63.3 (≈ 199 µM) | – | – | Cc1ccnc(NC(=O)CN(C)C(=O)c2ccc(Cl)cc2)c1
– | – | – | 0.7 (≈ 2.15 µM) | – | – | COc1ccc(OC)c(N/C=C2\C(=O)Oc3ccccc3C2=O)c1
0.584 | 6.93 | ≤ 10.7 | 39.8 (≈ 187 µM) | – | – | N#Cc1ccc(OCCn2cccn2)cc1
0.564 | 20.5 | 1040 | – | – | – | OC1(Cc2nc(-c3ccsc3)no2)CCCCC1
0.696 | – | – | 0.37 (≈ 1.06 µM) | – | – | O=c1c(=O)n(-c2ccc(F)c(F)c2)ccn1Cc1ccccc1Cl
13.9 | 23.4 | 928 | 42.1 (≈ 127 µM) | – | – | CN1CCC(n2ncc3[nH]c(-c4ccc5ccccc5c4)nc32)CC1

MDR1-MDCK efflux ratio | intrinsic clearance, human liver microsomes [mL/min/kg] | intrinsic clearance, rat liver microsomes [mL/min/kg] | aqueous solubility [µg/mL] | fraction unbound, human plasma | fraction unbound, rat plasma | Structure (SMILES)
57.1 | ≤ 4.74 | 19.9 | 55 (≈ 159 µM) | – | – | COc1cc2c(cc1OC)CN(C(=O)C1CCCN(C(C)=O)C1)CC2 (configuration not stated)
1.49 | 89.9 | 582 | – | 0.0152 | 0.0434 | Cc1cccnc1Nc1cccc(C2CCCN(CC(=O)Nc3nccs3)C2)n1 (configuration not stated)
9.5 | 115 | 507 | 55.6 (≈ 131 µM) | – | – | Cc1cc(Nc2ccc(F)cn2)cc(C2CCN(C(=O)COc3ccccc3F)C2)n1 (configuration not stated)
61.1 | 65.7 | 308 | 3.11 (≈ 7.37 µM) | – | – | Cn1cc(-c2ccc(-c3cncc(Cl)c3N3CCC4(CCNC4=O)CC3)cc2)cn1
15.5 | 106 | 664 | – | – | – | Cc1cc(Nc2ccc(F)cn2)cc(C2CCN(C(=O)COc3ccccc3)C2)n1 (configuration not stated)
31.1 | 5.5 | 164 | 22.1 (≈ 74.1 µM) | – | – | Cc1ccc(C)c(-n2c(S)nnc2-c2ccc(O)cc2)c1
– | 81.5 | 976 | 57.4 (≈ 165 µM) | – | – | COc1ccc(C2(NCc3cnn(-c4ccccc4)c3)CCCC2)cc1
– | ≤ 4.74 | 72.4 | 36.1 (≈ 150 µM) | – | – | COCc1nc(C2CCN(CCO)CC2)no1
– | – | – | 37.7 (≈ 138 µM) | – | – | Cc1noc2ncc(-c3nnc(CC(C)(C)C)o3)cc12
25.5 | ≤ 4.74 | 24.8 | – | – | – | Cc1cc(Nc2cc(N)ncn2)c(=O)n2c1C(=O)NC21CCCCC1
24.6 | 9.63 | 49.2 | – | – | – | N#Cc1ccc2ncnc(N[C@H]3CC[C@H](N4CCOCC4)CC3)c2c1
71.8 | 199 | 694 | 137 (≈ 324 µM) | – | – | CC(C)CC(=O)N1CCC(Cc2cccc(-c3cncnc3)c2)(C(=O)NC(C)C)CC1
2.1 | 11.2 | 270 | 38.6 (≈ 130 µM) | – | – | Cc1cc(C)cc(C(=O)Nc2nn(C(C)(C)C)cc2C#N)c1
– | 416 | 1510 | 54.8 (≈ 143 µM) | – | – | CCC(=O)N1CCCC(C(=O)N2CCc3c(Cl)cc(Cl)cc3C2C)C1 (configuration not stated)
2.32 | 6.19 | 237 | – | – | – | C[C@@H](NC(=O)N1CCC2(CCOCC2)CC1)c1ccc(F)cc1
0.637 | – | – | 0.19 (≈ 0.536 µM) | – | – | COc1cccc(NC(=O)c2c([O-])n(-c3cccc(OC)c3)n[n+]2C)c1
5.78 | ≤ 4.74 | 92.7 | 54.2 (≈ 172 µM) | – | – | O=C(CNc1ccc(C(=O)N2CCCC2)cc1)N1CCCCC1
1.34 | ≤ 4.74 | 54.8 | 39.6 (≈ 146 µM) | – | – | O=C(NCCc1cnn(-c2ccccc2)c1)N1CCC1
0.579 | 16.5 | 742 | – | – | – | CC(C)CCCNC(=O)c1[nH]ncc1Br
8.08 | ≤ 4.74 | ≤ 10.7 | 50.7 (≈ 155 µM) | – | – | CC(C)[C@H](NC(=O)c1c(F)cccc1F)C(=O)N1CCOCC1

MDR1-MDCK efflux ratio | intrinsic clearance, human liver microsomes [mL/min/kg] | intrinsic clearance, rat liver microsomes [mL/min/kg] | aqueous solubility [µg/mL] | fraction unbound, human plasma | fraction unbound, rat plasma | Structure (SMILES)
0.579 | 141 | 2590 | – | – | – | CSc1nccc(N2Cc3cnn(Cc4ccc(F)cc4)c3C2)n1
2.07 | ≤ 4.74 | ≤ 10.7 | 42.9 (≈ 186 µM) | – | – | CCNC(=O)C1CN(c2cccc(C#N)n2)C1
0.7 | 14.1 | 748 | 30.4 (≈ 125 µM) | – | – | CC(C)(C)c1nccc(NCc2ccncc2)n1
– | – | – | 17.1 (≈ 62.1 µM) | – | – | O=c1c(N2CCCC2)c(Cl)cnn1-c1ccccc1
1.52 | 19.1 | 1760 | 40.6 (≈ 152 µM) | – | – | Cc1ccccc1OCCn1c(N)nc2ccccc21
2.76 | ≤ 4.74 | ≤ 10.7 | 35.7 (≈ 136 µM) | – | – | COc1ccc(CCC(=O)N2CCCNCC2)cc1
0.775 | – | – | – | – | – | Cc1cc(C)n2ncc(C(=O)N[C@H]3CC[C@@H](C(C)C)CC3)c2n1
8.01 | 14.6 | 90.4 | 12.9 (≈ 29.6 µM) | – | – | O=c1ncn2nc(Sc3ccc(F)cc3F)ccc2c1-c1c(Cl)cccc1Cl
15.9 | – | – | 0.41 (≈ 1.06 µM) | – | – | Cc1cccc(OCC(=O)Nc2ccc3c(c2)C(=O)N(c2ccccc2)C3=O)c1
– | 78.9 | 448 | – | – | – | c1ccc(-c2nccc(NCc3nnc4n3CCCCC4)n2)cc1
26 | 11.2 | 70.8 | 25.9 (≈ 77.6 µM) | – | 0.118 | N#Cc1ccc2[nH]c(O)c(-c3ccc(CN4CCOCC4)cn3)c2c1
– | 86.8 | 337 | – | – | – | Cc1noc(C)c1COc1ccc2ncccc2c1
6.96 | ≤ 4.74 | 44.1 | – | – | – | CSc1ncccc1C(=O)Nc1ccc(-c2nnc(C)[nH]2)cc1
– | 506 | 2640 | 59.8 (≈ 174 µM) | – | – | Cc1cccc(NC(=O)CN2C(=O)N(C)C3(CCCCC3)C2=O)c1C
1.72 | 4.99 | 15.6 | 46.3 (≈ 187 µM) | – | – | Cc1cc(C)c(CC(=O)N2CC(CO)C2)c(C)c1
0.711 | ≤ 4.74 | 219 | – | – | – | CC(C)n1cnnc1SCOCc1ccccc1
– | 68.6 | 1020 | – | – | – | O=C(COCc1nc2ccccc2s1)N1CCC(n2c(=O)[nH]c3ccccc32)CC1
0.732 | 10.3 | 818 | 34.1 (≈ 118 µM) | – | – | CCOCC(=O)N1CCC2(CCc3ccccc3O2)CC1
0.696 | 30.7 | 996 | – | – | – | COCC1(CNS(=O)(=O)c2ccccc2)CCC1
